Source: patent publication US20240368174A1, “Antiviral Heterocyclic Compounds” (Enanta Pharmaceuticals, Inc., priority 2023, published 2024)

What was measured:
[1] = system: genotype A, “Long” strain RSV; assay: RSV-A assay (CPE, ATPlite readout in Hep-2 cells); format: cell-based, Human respiratory syncytial virus; settings: human respiratory syncytial virus, activity class
Method in brief: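 Protection from RSV-induced cytopathic effect measured by ATP content (ATPlite) after 5-day culture. Infection used genotype A Long virus at MOI 0.1 on 8,000 Hep-2 cells per well, with compound serially diluted 2-fold; values are EC50.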

[2] = system: HMPV clinical isolate A2 strain TN 94-49; assay: HMPV antiviral assay, Method 1 (LLC-MK2 cells, ATP-Lite); format: cell-based; settings: human metapneumovirus, hMPV A2 TN/94-49, LLC-MK2 cells
Method in brief: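 EC50 derived by four-parameter logistic fit of percent cell health, measured as ATP-Lite luminescence after 7 days at 37° C, 5% CO2. Compounds tested as 10-point 2.5-fold dilutions starting at 2 μM against TN 94-49 virus (MOI 0.005) in LLC-MK2 cells seeded at 5,000/well, infection medium containing 2 μg/mL TPCK-trypsin, serum-free.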

[3] = system: HMPV clinical isolate A2 strain TN 94-49; assay: HMPV antiviral assay, Method 2 (LLC-MK2 cells with CP-100-356, ATP-Lite); format: cell-based; settings: human metapneumovirus; hMPV A2 TN/94-49, LLC-MK2 cells with CP-100-356, Method 2
Method in brief: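 EC50 comes from a four-parameter fit of percent cell viability (ATP-Lite, normalized to virus-only and cell-only wells) after 7 days at 37 °C. Infection used HMPV A2 TN 94-49 at MOI 0.16 in LLC-MK2 cells, with 2 μM P-gp inhibitor CP-100-356 and 2 μg/mL TPCK-trypsin final; dose range 200 nM top, 2.5-fold, 10 points, duplicate.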

HRSV = settings: prophylactic use, high risk infants; cited from earlier work

Row | Compound | EC50 [1] [nM] | EC50 [2] [nM] | EC50 [3] [nM] | effective in reducing hospitalizations (HRSV) [%]
1 | C[C@]1(C(N)=O)COc2c1cc([C@@](O)(CNC(=O)c1cc(OC3CC3)c3nn(C4CC4)cc3c1)C1CC(F)(F)C1)nc2-c1cc(F)c(F)cc1F [Example 32] | < 200 | < 500 | – | –
2 | C[C@]1(C(N)=O)COc2c1cc([C@@](O)(CNC(=O)c1ccc3nc(N)sc3c1)C1CC1)nc2-c1cc(F)c(F)cc1F [Example 73] | < 200 | > 500 | – | –
3 | Cc1nc2ccc(C(=O)NC[C@](O)(c3cc4c(c(-c5cc(Cl)c(F)cc5F)n3)OC[C@]4(C)C(N)=O)C3CC3)cc2s1 [Example 74] | < 200 | < 500 | – | –
4 | Cc1nc2c(OC3CC3)cc(C(=O)NC[C@](O)(c3cc4c(c(-c5cc(Cl)c(F)cc5F)n3)OC[C@]4(C)C(N)=O)C3CC3)cc2s1 [Example 76] | < 200 | < 500 | – | –
5 | [2H]C([2H])([2H])c1nc2ccc(C(=O)NC[C@](O)(c3cc4c(c(-c5cc(Cl)c(F)cc5F)n3)OC[C@]4(C)C(N)=O)C3CC3)cc2o1 [Example 91] | < 200 | < 500 | – | –
6 | [2H]C([2H])([2H])c1nc2ccc(C(=O)NC[C@](O)(c3cc4c(c(-c5cc(F)c(F)cc5F)n3)OC[C@]4(C)C(N)=O)C3CC3)cc2o1 [Example 92] | < 200 | < 500 | – | –
7 | COc1cc(C(=O)NC[C@](O)(c2cc3c(c(-c4ccc5c(c4Cl)OC(F)(F)O5)n2)OC[C@]3(C)C(N)=O)C2CC2)cc2cn(C3(F)CC3)nc12 [Example 128] | < 200 | < 500 | – | –
8 | COc1cccc([C@](O)(CNC(=O)c2cc(OC)c3nn(C(F)F)cc3c2)c2cc3c(c(-c4cc(Cl)c(F)cc4F)n2)OC[C@]3(C)C(N)=O)c1 [Example 161] | < 200 | < 500 | – | –
9 | C=C(CNC(=O)c1cc(OC)c2nn(C3CC3)cc2c1)c1cc2c(c(-c3cc(Cl)c(F)cc3F)n1)OC[C@]2(C)C(N)=O [Example 214] | < 200 | > 500 | – | –
10 | COc1cc(C(=O)NC[C@](O)(c2cc3c(c(-c4cc(C)c(F)cc4F)n2)OC[C@]3(C)C(N)=O)C2CC2)cc2cn(C3CC3)nc12 [Example 385] | < 200 | < 500 | < 200 | –
11 | COc1cc(C(=O)NC[C@](O)(c2cc3c(c(-c4ccc5c(c4C)OC(F)(F)O5)n2)OC[C@]3(C)C(N)=O)C2CC2)cc2cn(C3CC3)nc12 [Example 392] | < 200 | < 500 | – | –
12 | COc1cc(C(=O)NC[C@](O)(c2cc3c(c(-c4cc(C(F)(F)F)c(F)cc4F)n2)OC[C@]3(C)C(N)=O)C2CC2)cc2cn(C3CC3)nc12 [Example 394] | < 200 | < 500 | < 200 | –
13 | Palivizumab: "a monoclonal antibody that is approved for prophylactic use, but its use is limited due to its high price" | – | – | – | 60

Continued, in another order:

Row | EC50 [1] [nM] | EC50 [2] [nM] | EC50 [3] [nM] | Compound | effective in reducing hospitalizations (HRSV) [%]
14 | < 200 | < 500 | – | Cc1nc2ccc(C(=O)NC[C@](O)(c3cc4c(c(-c5cc(Cl)c(F)cc5F)n3)OC[C@]4(C)C(N)=O)C3CC3)cc2o1 [Example 75] | –
15 | < 200 | < 500 | – | [2H]C([2H])([2H])C1=NC2C(OC)=CC(C(=O)NC[C@](O)(c3cc4c(c(-c5ccc6c(c5Cl)OC(F)(F)O6)n3)OC[C@]4(C)C(N)=O)C3CC3)=CC2S1 (stereo partly drawn) [Example 127] | –
16 | < 200 | < 500 | < 200 | C[C@]1(C(N)=O)COc2c1cc([C@@](O)(CNC(=O)c1cc(OC3CC3)c3nn(C(F)F)cc3c1)C1CC1)nc2-c1ccc2c(c1Cl)OC(F)(F)O2 [Example 129] | –
17 | < 200 | < 500 | – | COc1cc(C(=O)NC[C@](O)(c2cc3c(c(-c4cc(Cl)c(F)cc4F)n2)OC[C@]3(C)C(N)=O)[C@H]2CC2(F)F)cc2cn(C3CC3)nc12 [Example 150] | –
18 | < 200 | < 500 | – | COc1cc(C(=O)NC[C@](O)(c2cc3c(c(-c4cc(Cl)c(F)cc4F)n2)OC[C@]3(C)C(N)=O)[C@@H]2CC2(F)F)cc2cn(C3CC3)nc12 [Example 151] | –
19 | < 200 | < 500 | < 200 | COc1cccc([C@](O)(CNC(=O)c2cc(OC)c3nn(C4(F)CC4)cc3c2)c2cc3c(c(-c4cc(Cl)c(F)cc4F)n2)OC[C@]3(C)C(N)=O)c1 [Example 162] | –
20 | < 200 | < 500 | < 200 | [2H]c1nc2c(OC(F)F)cc(C(=O)NC[C@](O)(c3cc4c(c(-c5cc(Cl)c(F)cc5F)n3)OC[C@]4(C)C(N)=O)C3CC3)cc2cc1C([2H])([2H])[2H] [Example 218] | –
21 | < 200 | > 500 | – | COc1cc(C(=O)NC[C@](O)(c2cc3c(c(-c4cc(Cl)c(F)cc4F)n2)OC[C@]3(C)C(N)=O)C2(CO)CC2)cc2cn(C3CC3)nc12 [Example 245] | –
22 | < 200 | > 500 | < 200 | C[C@]1(C(N)=O)COc2c1cc([C@@](O)(CNC(=O)c1cc(O)c3nn(C4CC4)cc3c1)C1CC1)nc2-c1cc(F)c(F)cc1F [Example 360] | –
23 | < 200 | < 500 | – | COc1cc(C(=O)NC[C@](O)(c2cc3c(c(-c4ccc(F)c(Cl)c4C)n2)OC[C@]3(C)C(N)=O)C2CC2)cc2cn(C3CC3)nc12 [Example 391] | –
24 | < 200 | < 500 | < 200 | COc1cc(C(=O)NC[C@](O)(c2cc3c(c(-c4cc(C(F)F)c(F)cc4F)n2)OC[C@]3(C)C(N)=O)C2CC2)cc2cn(C3CC3)nc12 [Example 393] | –
25 | < 200 | < 500 | < 200 | COc1cc(C(=O)NC[C@](O)(c2cc3c(c(-c4ccc5c(c4Cl)OC(F)(F)O5)n2)OC[C@]3(C)C(N)=O)C2CC2)cc2cn(C(F)F)nc12 [Example 457] | –
